Legend:
[1] = tested on: intracerebrally implanted L-1210; assay: Antitumor activity against intracerebrally (i.c.) implanted L-1210 in mice; assay type: in vivo; settings: 50 mg/kg/day × 5 i.p.; for Survivors on day 35: groups of 8 mice; for Percent T/C: values as of 35th day
Protocol: Effects of the conjugate on i.c. implanted L-1210 in mice were also studied. A mouse (C3 D2 F1 /J, female, avg. wt. 20 g) was anesthesized with diethyl ether, the right parietal scalp was washed with 70 percent ethanol, a 27 G 1/2 needle with a guard placed on the outside of the barrel 1.5 mm from the top of the bevel, was inserted through the skull and 1×10^5 cells in 0.05 ml suspension were inoculated into the mouse. The conjugate in 0.9 percent NaCl (0.5 ml) was administered intraperitoneally once daily. Treatment began 24 h after implantation and continued for 5 consecutive days. Control animals received a 0.5 ml injection of saline. Testing was followed as described in the NCI protocol and evaluated by recording the survival time according to the formula appearing in protocol 11.

[2] = tested on: crude wheat germ acid phosphatase; assay: Enzymatic cleavage by acid phosphatase; assay type: in vitro ADME; settings: pH 4.8, 25° C., 24 h; for percent hydrolyzed by acid phosphatase: 3 mg enzyme
Protocol: (§1) Enzymatic cleavage of the phosphodiester bond of the conjugates was studied by incubating the conjugates (5 μmol) with various enzymes (1.5-3 mg) in appropriate buffer and with plasma (final volume 0.5 ml). An aliquot (200 μl) of the 24 h incubation mixtures was streaked on Whatman 3 MM paper (23×57 cm) with the authentic markers and the paper was developed in Solvent A. The bands were characterized and analyzed semi-quantitatively by UV estimation of the chromatographs. […] The conjugates also remained 60-85 percent intact during the incubation with baboon plasma at 37° C. for 24 h. From the results of these tests, conjugates of this type appear capable of serving as sustained release froms of the parent steroid and nucleoside components thereof.
The conjugate (5 μmol) was incubated with 0.15 M NaOAc, pH 4.8 (0.05 ml) and crude wheat germ acid phosphatase (3 mg., Sigma Chemical Co.) in 0.45 ml. of H2 O at 25° C. for 24 h. Pred-p-ara-C (I) was 86 percent hydrolyzed, the products being pred-p-ara-C (8 percent), ara-CMP (5 percent), ara-C (42 percent) and prednisolone (45 percent). Prednisone-p-ara-C (II) was 88 percent hydrolyzed, the products being prednisone-p-ara-C (7 percent), ara-CMP (4 percent), ara-C (43 percent) and prednisone (46 percent).

[3] = tested on: mouse leukemia L-1210 cells; assay: Antiproliferative activity in vitro, viability of L-1210 cells in culture; assay type: cell-based; settings: for antiproliferative activity compared with ara-CMP and ara-C: 72 h; for IC50: Mus musculus, L1210, 72 h, read-out: Concentration (μM) for 50 percent loss of viability at 72 hours (ED50)
Protocol: The antiproliferative activity of the conjugates, ara-C, ara-CMP and the steroids was determined by measuring their effects against mouse leukemia L-1210 cells in culture. The assay was performed in test tubes without agitation according to the procedure described by Hong et al. in J. Med. Chem. 16: 139 (1973). After 24, 48 and 72 h, viable cell counts were performed on the cultures which had been incubated with compounds in various concentrations and the concentration of each compound required to produce a 50 percent inhibition of growth (ED50) after 72 h was determined by interpolation using the method described by Tritsch et al. in Cancer Biochem. Biophys. 2: 87 (1977).

[4] = tested on: crude Crotalus adamenteus venom; assay type: in vitro ADME; settings: 2.5 mg crude venom, 24 h, 37° C.
Protocol: as §1

[5] = Incubation with fresh baboon plasma; assay type: in vitro ADME; settings: 37° C.; for metabolised at 24 h: 0.5 ml fresh baboon plasma, read-out: percent hydrolyzed in plasma; for remaining at 24 h: read-out: remaining conjugate among products
Protocol: as §1
The conjugate (5 μmol) was incubated with 0.5 ml of fresh baboon plasma at 37° C. for 24 h. 39 percent of the pred-p-ara-C (I) was hydrolyzed, the products being pred-p-ara-C (44 percent), ara-UMP (7 percent), ara-U (21 percent) and prednisolone (28 percent). Only 15 percent of the prednisone-p-ara-C (II) was hydrolyzed, the products being prednisone-p-ara-C (74 percent), ara-UMP (13 percent) and prednisone (13 percent).

[6] = tested on: i.p. implanted L-1210 leukemia; assay: Antitumor activity against i.p. implanted L-1210 leukemia in mice; assay type: in vivo; settings: for response vs control in vivo at 25 mg/kg: read-out: Percent T/C (mean survival days treated/control × 100), 25 mg/kg/day × 5 i.p.; for response vs control in vivo at 50 mg/kg: read-out: Percent T/C (mean survival days treated/control × 100), 50 mg/kg/day × 5 i.p.; for response vs control in vivo at 75 mg/kg: read-out: Percent T/C (mean survival days treated/control × 100), 75 mg/kg/day × 5 i.p.; for response vs control in vivo at 100 mg/kg: read-out: Percent T/C (mean survival days treated/control × 100), 100 mg/kg/day × 5 i.p.; for ascitic fluid at the end of the dosage period (5th day) / day on which mice started to accumulate ascitic fluid: doses between 25 and 75 mg/kg/day
Protocol: The ascites cell form of L-1210 leukemia, grown in C3 D2 F1 /J female mice (supplied by Jackson Labs) were employed. The assay was performed according to National Cancer Institute (NCI) protocol 1.100 described by R. I. Gerau et al., Cancer Chemother. Rep. (Part 3) 3: (2): 7, 47 (1972) with a slight modification. Intraperitoneal implantation of 1×10^6 cells in 0.5-ml suspension to the control and the treated groups (each group comprised 8 C3 D2 F1 /J female mice, average wt 20 g) was carried out using donor mice (DBA/2Ha, supplied by Roswell Park Memorial Institute) bearing 3 day tumor growths. Compounds were dissolved in 0.9 percent NaCl and a 0.5 ml dose was administered intraperitoneally once daily. Treatment began 24 h after implantation and continued for 5 consecutive days. Control animals received a 0.5 ml injection of saline. Testing was followed as described in the NCI protocol and evaluated by recording the survival time according to the formula appearing in protocol 11.

[7] = tested on: 5'-nucleotidase from Crotalus adamenteus; assay: Enzymatic cleavage by 5'-nucleotidase; assay type: in vitro ADME; settings: pH 9.0, 24 h, 37° C.; for hydrolysis by 5'-nucleotidase: 2 mg enzyme
Protocol: as §1
The conjugate (5 μmol) was incubated with 1 M Tris-HCl, pH 9.0 and 0.05 M MgSO4 (0.05 ml) and purified 5'-nucleotidase from Crotalus adamenteus (2 mg., Sigma Chemical Co.) in 0.45 ml. of H2 O for 24 h at 37° C.

SMILES | Mean Survival Days [1] [days] | body weight lost by day 11 [1] | Survivors on day 35 [1] | Percent T/C [1] [%] | percent hydrolyzed by acid phosphatase [2] [%] | product ara-C [2] [%] | product ara-CMP [2] [%] | product steroid (prednisolone or prednisone) [2] [%] | remaining conjugate among products [2] [%] | antiproliferative activity compared with ara-CMP and ara-C [3] | IC50 [3] [µM] | hydrolysis by crude snake venom [4] | product ara-C [4] [%] | product steroid [4] [%] | metabolised at 24 h [5] [%] | product ara-UMP ([5]; baboon plasma, 24 h) [%] | product steroid (prednisolone or prednisone) ([5]; baboon plasma, 24 h) [%] | remaining at 24 h ([5]; baboon plasma) [%] | Mean Survival Days, Treated ([6]; 25 mg/kg/day × 5 i.p.) [days] | Percent T/C (mean survival days treated/control × 100) ([6]; 25 mg/kg/day × 5 i.p.) [%] | also measured
C[C@]12C=CC(=O)C=C1CC[C@@H]1[C@@H]2[C@@H](O)C[C@@]2(C)[C@H]1CC[C@]2(O)C(=O)CO[P+]([O-])(O)OC[C@H]1O[C@@H](n2ccc(N)nc2=O)[C@@H](O)[C@@H]1O (stereo partly drawn) [Pred-p-ara-C (I), 5'-(Prednisolone-21-phosphoryl)-1-β-D-arabinofuranosylcytosine] | 18.13 | about 4 g | 1 | 201.4 | 86 | 42 | 5 | 45 | 8 | activity comparable to ara-CMP | 0.05 | hydrolyzed completely | 50 | 50 | 39 | 7 | 28 | 44 | 14.63 | 154 | weight gained over original weight (20 g) by day 20 [1]: about 1 g; Percent T/C ([1]; listed as I): 201%; product ara-U ([5]; baboon plasma, 24 h): 21%; Mean Survival Days, Treated ([6]; 40 mg/kg/day × 5 i.p.): 15.25 days; Mean Survival Days, Treated ([6]; 50 mg/kg/day × 5 i.p.): 19.13 days; Mean Survival Days, Treated ([6]; 75 mg/kg/day × 5 i.p.): 16.88 days; Mean Survival Days, Treated ([6]; 100 mg/kg/day × 5 i.p.): 11.74 days; response vs control in vivo at 25 mg/kg ([6]; Mus musculus, L1210, ip): 154%; response vs control in vivo at 40 mg/kg ([6]; Mus musculus, L1210, ip, read-out: Percent T/C (mean survival days treated/control × 100), 40 mg/kg/day × 5 i.p.): 174%; response vs control in vivo at 50 mg/kg ([6]; Mus musculus, L1210, ip): 201%; response vs control in vivo at 75 mg/kg ([6]; Mus musculus, L1210, ip): 178%; response vs control in vivo at 100 mg/kg ([6]; Mus musculus, L1210, ip): 136%; ascitic fluid at the end of the dosage period (5th day) [6]: no ascitic fluid; day on which mice started to accumulate ascitic fluid [6]: 15 days; hydrolysis by 5'-nucleotidase [7]: hydrolyzed completely; product ara-C [7]: 50%; product prednisolone or prednisone [7]: 50%
C[C@]12C=CC(=O)C=C1CC[C@@H]1[C@@H]2C(=O)C[C@@]2(C)[C@H]1CC[C@]2(O)C(=O)CO[P+]([O-])(O)OC[C@H]1O[C@@H](n2ccc(N)nc2=O)[C@@H](O)[C@@H]1O (stereo partly drawn) [Prednisone-p-ara-C (II), 5'-(Prednisone-21-phosphoryl)-1-β-D-arabinofuranosylcytosine] | 16.50 | about 4 g | 1 | 183.3 | 88 | 43 | 4 | 46 | 7 | less active than both ara-CMP and ara-C | 0.5 | hydrolyzed completely | 50 | 50 | 15 | 13 | 13 | 74 | 14.63 | 154 | Percent T/C ([1]; listed as II): 183%; Mean Survival Days, Treated ([6]; 50 mg/kg/day × 5 i.p.): 18.13 days; Percent T/C (mean survival days treated/control × 100) ([6]; 50 mg/kg/day × 5 i.p.): 210%; Mean Survival Days, Treated ([6]; 75 mg/kg/day × 5 i.p.): 14.50 days; Mean Survival Days, Treated ([6]; 100 mg/kg/day × 5 i.p.): 10.88 days; Percent T/C (mean survival days treated/control × 100) ([6]; 100 mg/kg/day × 5 i.p.): 124%; Mean Survival Days, Treated ([6]; 200 mg/kg/day × 5 i.p.): 9.13 days; response vs control in vivo at 25 mg/kg ([6]; Mus musculus, L1210, ip): 154%; response vs control in vivo at 50 mg/kg ([6]; Mus musculus, L1210, ip): 210%; response vs control in vivo at 75 mg/kg ([6]; Mus musculus, L1210, ip): 153%; response vs control in vivo at 100 mg/kg ([6]; Mus musculus, L1210, ip): 124%; response vs control in vivo at 200 mg/kg ([6]; Mus musculus, L1210, ip, read-out: Percent T/C (mean survival days treated/control × 100), 200 mg/kg/day × 5 i.p.): 104%; ascitic fluid at the end of the dosage period (5th day) [6]: no ascitic fluid; day on which mice started to accumulate ascitic fluid [6]: 15 days; hydrolysis by 5'-nucleotidase [7]: hydrolyzed completely; product ara-C [7]: 50%; product prednisolone or prednisone [7]: 50%
